Assay results from patent US20240287062A1, “NAPHTHYRIDONE COMPOUNDS FOR INHIBITION OF RAF KINASES AND/OR BCR-ABL TYROSINE KINASES” (Enliven Inc., priority 2021, published 2024).

How the values were obtained:
SRC = SRC (Homo sapiens (Human), UniProt P12931); test: Luminescence-based SRC kinase assay (Km ATP), ADP-Glo; format: biochemical; details: compound at 100 nM concentration
Method: Kinase activity of SRC was measured using the ADP-Glo system (Promega). Compounds were diluted in DMSO at 100 μM. 20 nL of compound or DMSO only (high control, HC) were added to a 384-well plate (OptiPlate-384, PerkinElmer) using an Echo550 liquid handler (Labcyte). 15 μL of kinase solution (10 mM MgCl2, 0.01% Brij-35, 2 mM DTT, 0.05% BSA, 1 mM EGTA, 50 mM HEPES pH 7.5, and 0.532 nM SRC [Carna Biosciences]) were added to each well of the 384-well plate containing the compounds. No enzyme control wells were included (low control, LC). The plate was incubated at room temperature for 30 minutes. 5 μL of a second solution containing 10 mM MgCl2, 0.01% Brij-35, 2 mM DTT, 0.05% BSA, 1 mM EGTA, 50 mM HEPES pH 7.5, 6 μM Peptide 4 (Perkin Elmer, Cat No 760348), and 200 μM ATP were added to each well to start the kinase reaction. The plate was incubated for 90 minutes at room temperature. 20 μL of ADP-Glo reagent (Promega) were then added to each well and the plate was incubated for 40 minutes at room temperature. […] During this step, ADP was converted to ATP, a substrate for luciferase, to produce luminescence signal. Luminescence was measured on an Envision plate reader (Perkin Elmer). Luminescence signal positively correlates with kinase activity. The percent inhibition of kinase activity was calculated as follows: percent inhibition=100×(LumHC−LumSample)/(LumHC−LumLC). […]

HepG2 (NRAS Q61L) = test: Cell viability assay (CellTiter Glo); format: cell-based; details: Homo sapiens, HepG2, 120 h, HepG2, 750 cells per well, read-out: BRAF Cytotoxicity (IC50, nM) HEPG2
Method: Cell viability was measured in the following MAPK pathway mutant cancer cell lines: A375 (BRAF V600E), HepG2 (NRAS Q61L), SK-MEL-30 (NRAS Q61K), and OCI-AML-2 (MBNL1-CRAF fusion). Cell viability was also measured in K562 cells.
A375, HepG2, SK-MEL-30 and OCI-AML-2 cells were grown in the appropriate growth medium as described in Table B2 below, and harvested at 50-80% confluence. Cells were counted and seeded at their appropriate density (see Table B1) in a 384-well plate (Corning 3570). A375, HepG2 and SK-MEL-30 were allowed to adhere overnight prior to treatment and the OCI-AML-2 were treated immediately for the indicated drug treatment times (Table 6).
Table 6 provides the growth media, number of cells seeded per well and drug treatment times for the each cell line. K562 cells were grown as described in Example B1 above.
Compounds were dissolved in DMSO and serially diluted. Serially-diluted compound or a DMSO only control (high control, “HC”) was added to the plated cells in each well. Compounds were tested at concentrations of about 10 μM to 0.51 nM, using three-fold dilutions. The final proportion of DMSO never exceeded 0.1%.
Plates were placed in a 37° C., […] incubator for the indicated treatment times (Table B1). Plates were then removed from the incubator and equilibrated for 15 minutes at room temperature. 40 μl of CellTiter Glo reagent (Promega) was added to measure the relative level of metabolically active cells by quantifying intracellular ATP concentrations. Plates were incubated for 30 minutes at room temperature, and luminescence was measured. Percent viability was normalized to a vehicle control only using the following formula: 0 viability=100×(LumSample−LumLC)/(LumHC−LumLC). Graphical curves were fitted using a nonlinear regression model with a sigmoidal dose response.

K562 cells = test: K562 cell proliferation assay (CellTiter-Glo); format: cell-based; details: Homo sapiens; K562 cell line, 72 hours, cell viability
Method: K562 cells, cultured in Iscove's Modified Dulbecco's Media (IMDM) supplemented with 10% FBS, were harvested at 50-80% confluency and plated at 2,000 cells per well in 384-well tissue culture plates. A subset of wells contained media only (low control, LC). Compounds were serially diluted in DMSO. 40 nL of compound or DMSO only (high control, HC) were added to each well using an Echo 550 liquid handler (Labcyte). The plates were placed in a 37° C. incubator with 5% CO2 for 72 hours. Cell viability was measured using a CellTiter-Glo luminescent cell viability assay (Promega), which allows for relative quantification of metabolically active cells by luminescence-based measurements of intracellular ATP concentrations. Briefly, plates were removed from the incubator and equilibrated for 15 minutes at room temperature prior to the addition of 40 μL of CellTiter-Glo reagent. Plates were then incubated for 30 minutes at room temperature. Luminescence was measured using an EnSpire plate reader (Perkin Elmer). As noted above, luminescence values from wells with DMSO only or media without cells were used as high and low controls (HC and LC), respectively. Normalized percent viability was calculated as follows: percent viability=100×(LumSample−LumLC)/(LumHC−LumLC). IC50 values were calculated using the XLFit software.

[1] = test system: phosphorylated ERK (pERK); test: Detection of phosphorylated ERK (pERK), AlphaLISA in A375 cells; format: cell-based; details: Homo sapiens, A-375, 4 h, four hours incubation, inhibition of ERK phosphorylation, read-out: PERK ELISA (IC50)
Method: A375 cells were counted and seeded at 10,000 cells/well in 384 well plates (Corning 3764) and allowed to adhere overnight.
Compounds were dissolved and serially diluted in DMSO. The compounds were then added, mixed, and incubated for four hours at 37° C., 5% CO2. Compounds were added using four-fold dilutions at final concentrations ranging from 10 μM to 0.01 nM. DMSO only and 10 uM staurosporine were added as high and low controls.
Following the four-hour incubation with compounds, cell lysates were prepared and AlphaLISA assay measuring phosphorylated ERK was performed. Media was removed using the Apricot Designs pipettor. Lysis buffer was made from 1× AlphaLISA SureFire Assay Kit (AlphaLISA SureFire Ultra pERK 12 (Thr202/Tyr204) ALSU-PERK-A50K) lysis buffer with protease and phosphatase inhibitors. Cells were lysed by adding 10 uL to all the wells and mixed for 40 minutes on a plate shaker. 10 uL cell lysate was transferred to a new Optiplate (PerkinElmer 6007290) and incubated with 5 uL 1× acceptor mix for 2 hours in the dark. 5 uL of 1× donor mix was added to all wells and mixed by shaking followed by overnight incubation in the dark.
pERK AlphaLISA signal was read on the Envision using standard AlphaLISA settings. Percent inhibition of ERK phosphorylation was calculated by % Inhibition=100×(LumHC−LumSample)/(LumHC−LumLC). The low and high controls (LC/HC) are generated from lysate from wells with cells treated with DMSO or […] Staurosporine (BioAustralis, cat #BIA-S1086), […]. IC50 values were calculated by fitting the Curve using XLfit (v5.3.1.3), equation 201: Y=Bottom+(Top−Bottom)/(1+10^((Log IC50−X)*HillSlope)).

Chain of SRC (P12931 whole entry): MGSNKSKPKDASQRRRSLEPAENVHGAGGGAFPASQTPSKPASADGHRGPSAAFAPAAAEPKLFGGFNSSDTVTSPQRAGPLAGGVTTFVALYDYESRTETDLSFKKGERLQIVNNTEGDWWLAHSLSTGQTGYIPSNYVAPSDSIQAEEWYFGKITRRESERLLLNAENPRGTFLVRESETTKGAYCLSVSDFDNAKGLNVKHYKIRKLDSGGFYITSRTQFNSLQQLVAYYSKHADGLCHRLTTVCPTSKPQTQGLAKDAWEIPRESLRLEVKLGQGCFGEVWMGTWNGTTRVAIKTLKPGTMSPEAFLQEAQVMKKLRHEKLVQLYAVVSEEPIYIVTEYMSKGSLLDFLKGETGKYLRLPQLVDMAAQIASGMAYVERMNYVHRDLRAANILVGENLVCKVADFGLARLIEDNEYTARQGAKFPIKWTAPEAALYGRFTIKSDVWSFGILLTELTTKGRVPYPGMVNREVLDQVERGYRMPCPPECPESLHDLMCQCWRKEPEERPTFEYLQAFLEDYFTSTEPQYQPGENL

Q: Which inhibition at 0.1 µM (SRC) does the source give for Cc1c(F)cncc1-c1cc2cnc(NC(=O)[C@@H]3C[C@@H]3F)cc2n(C)c1=O [Compound 28, (1S,2S)-2-fluoro-N-[3-(5-fluoro-4-methylpyridin-3-yl)-1-methyl-2-oxo-1,6-naphthyridin-7-yl]cyclopropane-1-carboxamide] here?
A: 48%

Q: What about the IC50 (HepG2 (NRAS Q61L)) of the same molecule?
A: 496 nM

Q: What about the IC50 (K562 cells) of the same molecule?
A: 47 nM

Q: What about the IC50 [1] of the same molecule?
A: 146 nM

Q: Which inhibition at 0.1 µM (SRC) does the source give for Cc1c(F)cncc1-c1cc2cnc(NC(=O)C3CC3)cc2n(C)c1=O [Compound 2, N-[3-(5-fluoro-4-methylpyridin-3-yl)-1-methyl-2-oxo-1,6-naphthyridin-7-yl]cyclopropanecarboxamide] here?
A: 77%

Q: And the IC50 (HepG2 (NRAS Q61L))?
A: 334 nM

Q: What about the IC50 (K562 cells) of the same molecule?
A: 28 nM

Q: And the IC50 [1]?
A: 189 nM
